How the values were obtained:
Assay type in all cases: cell-based
[1] = target: T1, M3 muscarinic receptor (Homo sapiens, UniProt P20309); test: Functional mobilization of intracellular calcium (FLIPR), M3-CHO cells; details: for Emax: 100% efficacy = maximum response obtained with the Carbachol control; for M3 Activity: M3-CHO cells, calcium mobilization (FLIPR)
T1 construct: expressed in transfected cells; host or cells: CHO (M3-CHO)
Summary of the method: (§1)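 CHO cells expressing human M1–M4 receptors loaded with Fluo-3 AM or Calcium 3 dye (1 mM probenecid, pH 7.4); 0.5% DMSO final. Agonist mode: compound added directly; antagonist mode: 15 min pre-incubation or co-application, then carbachol at EC80. Fluorescence read 60 s on FLIPR; efficacy relative to carbachol maximum.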

[2] = target: T2, M2 muscarinic receptor (Homo sapiens, UniProt P08172); test: Functional mobilization of intracellular calcium (FLIPR), M2-CHO cells; details: for Emax: 100% efficacy = maximum response obtained with the Carbachol control; for M2 Activity: M2-CHO cells, calcium mobilization (FLIPR)
T2 construct: expressed in transfected cells; host or cells: CHO (M2-CHO)
T2 sequence (P08172 1-466): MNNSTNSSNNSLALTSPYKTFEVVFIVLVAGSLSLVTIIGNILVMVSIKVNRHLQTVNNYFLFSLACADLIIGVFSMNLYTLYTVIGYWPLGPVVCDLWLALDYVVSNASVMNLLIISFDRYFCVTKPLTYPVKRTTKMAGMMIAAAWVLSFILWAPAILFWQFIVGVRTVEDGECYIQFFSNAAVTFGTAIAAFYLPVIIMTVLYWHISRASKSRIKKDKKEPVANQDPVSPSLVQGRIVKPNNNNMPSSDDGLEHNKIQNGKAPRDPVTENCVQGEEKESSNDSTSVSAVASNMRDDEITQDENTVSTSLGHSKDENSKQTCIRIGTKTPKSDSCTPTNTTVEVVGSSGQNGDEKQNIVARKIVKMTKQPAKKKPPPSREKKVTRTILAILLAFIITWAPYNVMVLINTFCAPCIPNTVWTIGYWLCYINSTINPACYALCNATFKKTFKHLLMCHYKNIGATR
Summary of the method: as §1

[3] = target: T3, M4 muscarinic receptor (Homo sapiens, UniProt P08173); test: Functional mobilization of intracellular calcium (FLIPR), M4-CHO cells; details: for Emax: 100% efficacy = maximum response obtained with the Carbachol control; for M4 Activity: M4-CHO cells, calcium mobilization (FLIPR)
T3 construct: expressed in transfected cells; host or cells: CHO (M4-CHO)
T3 sequence (P08173 1-479): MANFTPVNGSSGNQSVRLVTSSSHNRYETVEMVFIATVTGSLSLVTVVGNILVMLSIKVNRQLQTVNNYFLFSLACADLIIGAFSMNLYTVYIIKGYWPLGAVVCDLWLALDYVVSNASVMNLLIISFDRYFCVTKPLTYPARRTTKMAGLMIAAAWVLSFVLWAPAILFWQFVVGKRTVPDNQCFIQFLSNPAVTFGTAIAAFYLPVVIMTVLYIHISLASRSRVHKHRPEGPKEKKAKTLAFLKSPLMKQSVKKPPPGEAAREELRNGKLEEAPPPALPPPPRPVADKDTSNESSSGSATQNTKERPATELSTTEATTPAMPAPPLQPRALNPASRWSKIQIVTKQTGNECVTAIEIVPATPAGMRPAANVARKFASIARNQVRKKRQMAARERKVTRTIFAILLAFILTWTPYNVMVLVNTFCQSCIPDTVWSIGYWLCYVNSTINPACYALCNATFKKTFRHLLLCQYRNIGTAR
Summary of the method: as §1

[4] = target: T4, M1 muscarinic receptor (Homo sapiens, UniProt P11229); test: Functional mobilization of intracellular calcium (FLIPR), M1-CHO cells; details: for Emax: 100% efficacy = maximum response obtained with the Carbachol control; for M1 Activity: M1-CHO cells, calcium mobilization (FLIPR)
T4 construct: expressed in transfected cells; host or cells: CHO (M1-CHO)
T4 sequence (P11229 1-460): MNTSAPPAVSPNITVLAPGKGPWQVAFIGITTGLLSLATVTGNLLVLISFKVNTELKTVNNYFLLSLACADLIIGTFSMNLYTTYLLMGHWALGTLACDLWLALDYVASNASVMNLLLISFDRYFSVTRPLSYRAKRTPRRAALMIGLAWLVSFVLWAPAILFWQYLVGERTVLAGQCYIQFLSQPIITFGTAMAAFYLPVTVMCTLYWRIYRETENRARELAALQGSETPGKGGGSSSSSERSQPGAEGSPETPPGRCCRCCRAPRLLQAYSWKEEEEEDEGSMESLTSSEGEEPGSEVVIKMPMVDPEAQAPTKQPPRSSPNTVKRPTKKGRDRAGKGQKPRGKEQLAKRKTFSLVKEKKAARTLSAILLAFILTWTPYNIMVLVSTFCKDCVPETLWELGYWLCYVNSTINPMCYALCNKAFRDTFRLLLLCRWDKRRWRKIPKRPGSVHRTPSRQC
Summary of the method: as §1

T1 sequence (P20309 whole entry): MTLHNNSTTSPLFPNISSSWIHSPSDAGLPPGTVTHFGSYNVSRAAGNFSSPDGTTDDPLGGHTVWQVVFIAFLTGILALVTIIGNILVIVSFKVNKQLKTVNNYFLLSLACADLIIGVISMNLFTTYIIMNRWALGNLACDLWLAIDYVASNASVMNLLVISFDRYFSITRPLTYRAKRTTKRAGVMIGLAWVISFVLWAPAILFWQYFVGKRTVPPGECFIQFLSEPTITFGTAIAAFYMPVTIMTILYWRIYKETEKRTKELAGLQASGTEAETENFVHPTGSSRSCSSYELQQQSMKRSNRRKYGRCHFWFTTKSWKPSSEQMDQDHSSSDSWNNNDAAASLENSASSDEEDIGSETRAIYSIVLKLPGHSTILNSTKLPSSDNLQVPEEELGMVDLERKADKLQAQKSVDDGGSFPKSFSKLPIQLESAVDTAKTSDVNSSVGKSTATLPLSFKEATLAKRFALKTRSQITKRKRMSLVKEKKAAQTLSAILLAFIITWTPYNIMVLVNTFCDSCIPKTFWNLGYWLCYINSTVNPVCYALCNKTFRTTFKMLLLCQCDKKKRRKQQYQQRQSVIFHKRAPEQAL

## CCOC(=O)N1CCC(CN2CCC(c3cccc4c3OCO4)CC2)CC1 [Compound 217]
[1]
  Emax: < 25%
  M3 Activity: ++ (activity was measured to be from 1.0 μM to 5.0 μM)
[2]
  Emax: < 25%
  M2 Activity: + (activity was measured to be greater than 5.0 μM)
[3]
  Emax: 25 to 100%
  M4 Activity: +++ (activity was measured to be less than 1.0 μM)
[4]
  Emax: 25 to 100%
  M1 Activity: +++ (activity was measured to be less than 1.0 μM)

## CCOC(=O)N1C2CCC1CC(N1CCC(F)(c3cc(Cl)ccc3OC)CC1)C2 (stereo not drawn) [Compound 219, 4-(5-chloro-2-methoxyphenyl)-4-fluoropiperidine tropane ethyl carbamate]
[1]
  Emax: < 25%
  M3 Activity: + (activity was measured to be greater than 5.0 μM)
[2]
  Emax: < 25%
  M2 Activity: + (activity was measured to be greater than 5.0 μM)
[3]
  Emax: 25 to 100%
  M4 Activity: +++ (activity was measured to be less than 1.0 μM)
[4]
  Emax: 25 to 100%
  M1 Activity: +++ (activity was measured to be less than 1.0 μM)

## COc1ccccc1C1CCN(C2CCC3CCC2C3)CC1 (stereo not drawn) [Compound 221]
[1]
  Emax: < 25%
  M3 Activity: + (activity was measured to be greater than 5.0 μM)
[2]
  Emax: < 25%
  M2 Activity: + (activity was measured to be greater than 5.0 μM)
[3]
  Emax: 25 to 100%
  M4 Activity: +++ (activity was measured to be less than 1.0 μM)
[4]
  Emax: 25 to 100%
  M1 Activity: + (activity was measured to be greater than 5.0 μM)

## COc1ccc(C#CCC(C)C)cc1C1CCN([C@H]2C[C@H]3CC[C@H]2C3)CC1 [Compound 223]
[1]
  Emax: < 25%
  M3 Activity: + (activity was measured to be greater than 5.0 μM)
[2]
  Emax: < 25%
  M2 Activity: + (activity was measured to be greater than 5.0 μM)
[3]
  Emax: 25 to 100%
  M4 Activity: + (activity was measured to be greater than 5.0 μM)
[4]
  Emax: < 25%
  M1 Activity: + (activity was measured to be greater than 5.0 μM)

## COc1ccccc1C1CCN(C2CCCCCC2)CC1 [Compound 224]
[1]
  Emax: < 25%
  M3 Activity: + (activity was measured to be greater than 5.0 μM)
[2]
  Emax: < 25%
  M2 Activity: + (activity was measured to be greater than 5.0 μM)
[3]
  Emax: 25 to 100%
  M4 Activity: +++ (activity was measured to be less than 1.0 μM)
[4]
  Emax: 25 to 100%
  M1 Activity: + (activity was measured to be greater than 5.0 μM)

## Cc1cccc(C2CCN(C3C[C@H]4CC[C@H]3C4)CC2)c1C (stereo partly drawn) [Compound 225]
[1]
  Emax: < 25%
  M3 Activity: + (activity was measured to be greater than 5.0 μM)
[2]
  Emax: < 25%
  M2 Activity: + (activity was measured to be greater than 5.0 μM)
[3]
  Emax: 25 to 100%
  M4 Activity: ++ (activity was measured to be from 1.0 μM to 5.0 μM)
[4]
  Emax: 25 to 100%
  M1 Activity: + (activity was measured to be greater than 5.0 μM)

## CCOC(=O)N1C2CCC1CC(N1CCC(c3cc(-c4ccc(C(=O)NC)c(Cl)c4)ccc3OC)CC1)C2 (stereo not drawn) [Compound 226]
[1]
  Emax: < 25%
  M3 Activity: + (activity was measured to be greater than 5.0 μM)
[2]
  Emax: < 25%
  M2 Activity: + (activity was measured to be greater than 5.0 μM)
[3]
  Emax: 25 to 100%
  M4 Activity: ++ (activity was measured to be from 1.0 μM to 5.0 μM)
[4]
  Emax: < 25%
  M1 Activity: + (activity was measured to be greater than 5.0 μM)

## COc1cc(F)c(F)cc1C1CCN([C@H]2C[C@H]3CC[C@H]2C3)CC1 [Compound 227]
[1]
  Emax: < 25%
  M3 Activity: + (activity was measured to be greater than 5.0 μM)
[2]
  Emax: < 25%
  M2 Activity: + (activity was measured to be greater than 5.0 μM)
[3]
  Emax: 25 to 100%
  M4 Activity: ++ (activity was measured to be from 1.0 μM to 5.0 μM)
[4]
  Emax: 25 to 100%
  M1 Activity: + (activity was measured to be greater than 5.0 μM)

## COc1ccc(C(=O)c2ccsc2)cc1C1CCN([C@H]2C[C@H]3CC[C@H]2C3)CC1 [Compound 230]
[1]
  Emax: < 25%
  M3 Activity: + (activity was measured to be greater than 5.0 μM)
[2]
  Emax: < 25%
  M2 Activity: + (activity was measured to be greater than 5.0 μM)
[3]
  Emax: 25 to 100%
  M4 Activity: +++ (activity was measured to be less than 1.0 μM)
[4]
  Emax: < 25%
  M1 Activity: + (activity was measured to be greater than 5.0 μM)

## COc1ccc(F)cc1C1(O)CCN(CC2CCOCC2)CC1 [Compound 231]
[1]
  Emax: < 25%
  M3 Activity: + (activity was measured to be greater than 5.0 μM)
[2]
  Emax: < 25%
  M2 Activity: + (activity was measured to be greater than 5.0 μM)
[3]
  Emax: < 25%
  M4 Activity: + (activity was measured to be greater than 5.0 μM)
[4]
  Emax: < 25%
  M1 Activity: + (activity was measured to be greater than 5.0 μM)

## COc1ccccc1C1CCN(CC2CCCC2)CC1 [Compound 232]
[1]
  Emax: < 25%
  M3 Activity: + (activity was measured to be greater than 5.0 μM)
[2]
  Emax: < 25%
  M2 Activity: + (activity was measured to be greater than 5.0 μM)
[3]
  Emax: 25 to 100%
  M4 Activity: ++ (activity was measured to be from 1.0 μM to 5.0 μM)
[4]
  Emax: 25 to 100%
  M1 Activity: + (activity was measured to be greater than 5.0 μM)

## COc1ccccc1C1CCN(CC2CCOCC2)CC1 [Compound 233]
[1]
  Emax: < 25%
  M3 Activity: + (activity was measured to be greater than 5.0 μM)
[2]
  Emax: < 25%
  M2 Activity: + (activity was measured to be greater than 5.0 μM)
[3]
  Emax: 25 to 100%
  M4 Activity: ++ (activity was measured to be from 1.0 μM to 5.0 μM)
[4]
  Emax: 25 to 100%
  M1 Activity: + (activity was measured to be greater than 5.0 μM)

## COc1ccccc1C1CCN(C2CCC(c3ccccc3)CC2)CC1 (stereo not drawn) [Compound 234]
[1]
  Emax: < 25%
  M3 Activity: + (activity was measured to be greater than 5.0 μM)
[2]
  Emax: < 25%
  M2 Activity: + (activity was measured to be greater than 5.0 μM)
[3]
  Emax: < 25%
  M4 Activity: + (activity was measured to be greater than 5.0 μM)
[4]
  Emax: < 25%
  M1 Activity: + (activity was measured to be greater than 5.0 μM)

## COc1ccccc1C1CCN(C2CCOCC2)CC1O (stereo not drawn) [Compound 235]
[1]
  Emax: < 25%
  M3 Activity: + (activity was measured to be greater than 5.0 μM)
[2]
  Emax: < 25%
  M2 Activity: + (activity was measured to be greater than 5.0 μM)
[3]
  Emax: 25 to 100%
  M4 Activity: + (activity was measured to be greater than 5.0 μM)
[4]
  Emax: 25 to 100%
  M1 Activity: + (activity was measured to be greater than 5.0 μM)

## c1cc2c(c(C3CCN(C4C[C@@H]5CC[C@@H]4C5)CC3)c1)OCO2 (stereo partly drawn) [Compound 236]
[1]
  Emax: < 25%
  M3 Activity: + (activity was measured to be greater than 5.0 μM)
[2]
  Emax: < 25%
  M2 Activity: + (activity was measured to be greater than 5.0 μM)
[3]
  Emax: 25 to 100%
  M4 Activity: +++ (activity was measured to be less than 1.0 μM)
[4]
  Emax: 25 to 100%
  M1 Activity: ++ (activity was measured to be from 1.0 μM to 5.0 μM)

Source: patent US7880007B2, “Bicyclic substituted phenyl piperidine modulators of muscarinic receptors” (Vertex Pharmaceuticals Incorporated, priority 2004, dated 2011)
